Experimental data reported in patent US6441036B1 (priority 1998, dated 2002).

Key:
[1] = 28 days toxicity study in dogs (GLP); format: in vivo
Description: A 28 days toxicity study in dogs according to GLP guide-lines has been performed by Corning Hazleton (Europe), England. […] Some lipid related parameters were lowered in the animals given high dosages. This is consistent with the pharmacological activity of TTA.

[2] = Lipid lowering effect in obese Zucker fa/fa rats (Example 3); format: in vivo; settings: 300 mg/day/kg by gavage once daily for 10 days; control palmitic acid
Protocol: Glucose (GLU, Boehringer Mannheim, Germany), free fatty acids (NEFA, C ACS-ACOD kit; Wako Chemicals, Dalton, USA) and b-hydroxybutyrate (310-A kit; Sigma Diagnostics Inc., St. Louis, USA) concentrations were measured using enzymatic methods. Insulin concentrations were determined with radioimmunoassay by (CIS bio International, Gif sur Yvette, France) using rat insulin as standard in the Zucker rats. In the Wistar Charles River rats, plasma glucose concentrations were measured with the aid of Beckman Glucose Analyzer (Fullerton, Calif., USA). Plasma insulin levels were measured using a RIA kit from Linco Research Inc. (St. Charles, Mo., USA). Phospholipids were measured by the enzymatic method of bioMérieux, Marcy-l{grave over ( )}Etoile, France, Triacylglycerol by the Technicon Method no. SA4-0324L90, USA and Cholesterol by the Technicon Method no. SA4-0305L90, USA.
Male obese Zucker fa/fa rats, weighing 100 g at the start of the experiment, were housed in pairs in metal wire cages in a room maintained at 12 h light-dark cycles and a constant temperature of 20±3° C. The animals were acclimatised for at least one week under these conditions before the start of the experiment.
TTA (tetradecylthioacetic acid) prepared in accordance with procedure described previously, and palmitic acid (control), was suspended in 0.5% (w/v) carboxymethyl cellulose (CMC). Six animals were used in both groups. TTA (tetradecylthioacetic acid) and palmitic acid were administered at a dose of 300 mg/day/kg body weight, by gastric intubation (gavage) once daily for 10 days. The rats were fasted for 2 hours before termination of the experiment. Blood and organs were collected. Lipid concentrations in plasma were determined using an autoanalyzer, as described in the method section.

[3] = Hepatic levels of triacylglycerol (Example 17); format: in vivo, Wistar rats; settings: fed 6 days, no prefeeding; TTA 150 mg/kg/day, TTP 300 mg/kg/day
Protocol: Male Wistar rats had free access to water and rat maintenance chow. They were fed palmitic acid or fatty acid analogues suspended in 0.5% CMC for 6 days. In some experiments TTA or TTP were fed for 3 days before feeding both for 6 days. At the end of the experiment the rats were fasted overnight, killed, the liver removed and homogenized. Triacylglycerol was measured in the homogenate.

For Tetradecylthioacetic acid [TTA], the Lipid related parameters ([1]; animals given high dosages) was “lowered”, the Body weight ([1]; dose level of 500 mg/kg/day) was “body weight loss” and the Evidence of toxicity ([1]; dose levels of 50 or 500 mg/day/kg, 28 days) was “no evidence of toxicity”. The Tolerability ([1]; oral administration, dose levels up to 500 mg/kg/day, 28 days) was “generally well tolerated”, the “Decreased lipid level in plasma: Cholesterol” value [2] was 73 % of control and the “Decreased lipid level in plasma: Phospholipids” value [2] was 71 % of control. For the same substance, the “Decreased lipid level in plasma: Triglycerides” value [2] was 72 % of control and the “Hepatic TG (triacylglycerol)” value [3] was 7.7 ± 2.9 µmol/g.
